Data set [1] addresses T1, ATP-citrate lyase (ACLY) (Homo sapiens, UniProt P53396).
T1 sequence (P53396 1-1101): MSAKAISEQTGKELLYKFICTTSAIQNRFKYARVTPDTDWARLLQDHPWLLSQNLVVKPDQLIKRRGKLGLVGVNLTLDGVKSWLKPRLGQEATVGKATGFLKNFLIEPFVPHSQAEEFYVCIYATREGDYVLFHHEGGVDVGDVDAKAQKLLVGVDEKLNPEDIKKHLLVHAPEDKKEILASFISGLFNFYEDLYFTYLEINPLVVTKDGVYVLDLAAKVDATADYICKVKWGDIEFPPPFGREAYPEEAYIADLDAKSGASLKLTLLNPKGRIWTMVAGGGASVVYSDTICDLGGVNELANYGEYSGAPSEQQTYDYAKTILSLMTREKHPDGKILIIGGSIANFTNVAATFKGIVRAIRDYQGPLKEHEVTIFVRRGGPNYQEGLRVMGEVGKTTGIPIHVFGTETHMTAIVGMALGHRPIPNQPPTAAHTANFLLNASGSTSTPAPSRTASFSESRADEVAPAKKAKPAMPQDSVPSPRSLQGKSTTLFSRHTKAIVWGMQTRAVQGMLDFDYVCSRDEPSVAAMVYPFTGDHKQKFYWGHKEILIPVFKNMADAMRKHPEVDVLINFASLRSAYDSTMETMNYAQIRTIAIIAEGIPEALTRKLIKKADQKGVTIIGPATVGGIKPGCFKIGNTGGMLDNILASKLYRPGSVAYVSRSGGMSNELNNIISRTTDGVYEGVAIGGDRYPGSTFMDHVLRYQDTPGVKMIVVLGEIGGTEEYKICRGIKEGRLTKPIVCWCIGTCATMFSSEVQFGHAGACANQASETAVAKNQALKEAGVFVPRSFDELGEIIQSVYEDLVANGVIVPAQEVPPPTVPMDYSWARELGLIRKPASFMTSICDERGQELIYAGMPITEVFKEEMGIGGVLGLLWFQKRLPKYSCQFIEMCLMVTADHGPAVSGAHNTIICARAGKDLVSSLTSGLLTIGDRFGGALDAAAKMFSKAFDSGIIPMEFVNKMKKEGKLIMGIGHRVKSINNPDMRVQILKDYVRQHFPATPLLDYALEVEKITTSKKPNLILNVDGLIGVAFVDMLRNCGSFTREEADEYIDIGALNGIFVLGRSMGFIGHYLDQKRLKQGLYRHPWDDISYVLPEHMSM
The experiment in a line: cryo-EM structure. The data set is classed as binding.

The target of data set [2] is T1, ATP-citrate lyase (ACLY). Kind of data set: cryo-EM structure. The data set is classed as binding. The source holds these as a separate data set.
The target in data set [3] is T2, ATP-citrate lyase (ACLY) (Homo sapiens, UniProt P53396, E599Q).
T2 sequence (P53396 1-1101 E599Q): T1 sequence (P53396 1-1101) with E599Q
The experiment in a line: cryo-EM structure. The data set is classed as binding.

Data set [4] addresses T1, ATP-citrate lyase (ACLY). The experiment in a line: steady-state intrinsic fluorescence titration, one-site fit. The data set is classed as binding.
Data set [5] has as its target T1, ATP-citrate lyase (ACLY). The experiment in a line: cryo-EM structure. The data set is classed as binding. The source holds these as a separate data set.
Data set [6] has as its target T3, ATP-citrate lyase (ACLY), full length human, wild type (human), P53396.
T3 chain: T1 sequence (P53396 1-1101)
The experiment in a line: cryo-EM structure. The settings on record: remark: other sources report otherwise.

The data set “cryo-EM structure” concerns the molecule itself. Kind of data set: cryo-EM structure.

Positions count from the first letter of the chain named. In names and notes the source's numbering stands.

`O=C(O)CC(=O)C(=O)O` [OAA, oxaloacetate] came in with a Kd on ATP-citrate lyase (ACLY) [1] of 15 ± 4 µM.

As for `CC(C)(COP(=O)(O)OP(=O)(O)OC[C@H]1O[C@@H](n2cnc3c(N)ncnc32)[C@H](O)[C@@H]1OP(=O)(O)O)[C@@H](O)C(=O)NCCC(=O)NCCS` [CoA, Coenzyme A], the “cryo-EM structure (3.0 Å, D2)” value on ATP-citrate lyase (ACLY) [2] is “CoA binds at the interface between the CSH and ASH domains of separate subunits”.

As for `Nc1ncnc2c1ncn2[C@@H]1O[C@H](COP(=O)(O)OP(=O)(O)O)[C@@H](O)[C@H]1O` [ADP], the “cryo-EM structure (2.85 Å) of mutant mixed with ATP, citrate and CoA” value on ATP-citrate lyase (ACLY) [3] was “ACLY-E599Q–ATP–citrate–CoA structure highlighting the bound ADP (hydrolyzed ATP) and phospho-citryl-CoA intermediate”.

`O=C(O)CC(O)(CC(=O)O)C(=O)O` [citrate] yielded a dissociation constant (Kd) on ATP-citrate lyase (ACLY) [4] of 3.4 ± 0.5 µM.

With `CC(=O)SCCNC(=O)CCNC(=O)[C@H](O)C(C)(C)COP(=O)(O)OP(=O)(O)OC[C@H]1O[C@@H](n2cnc3c(N)ncnc32)[C@H](O)[C@@H]1OP(=O)(O)O` [acetyl-CoA], on ATP-citrate lyase (ACLY) [5], the “cryo-EM structure (3.1 Å, D2) with OAA; DSF stabilization” value is “acetyl-CoA occupied the same binding site as CoA and was also stabilized by the same basic residues, R576 and K964”.

B1: ATP-citrate lyase (ACLY), full length human, wild type, P53396 1-1101 (enzyme)
chain: T1 sequence (P53396 1-1101)
The molecule B1 had a stoichiometry N in data set [6] of 4.

B2: ATP-citrate lyase (ACLY) E599Q catalytic mutant, full length human (enzyme, UniProt P53396 1-1101, looked up)
chain: T1 sequence (P53396 1-1101) with E599Q
Consider B2, for which the binding result in the data set “cryo-EM structure” is “binds”.

Usually Kd stands for the concentration at which binding is half-saturated. Read a low Kd as tighter binding. By stoichiometry N is commonly meant the number of molecules, sites or subunits per partner or assembly.

Source of the values: article PMC8436250 (Nature structural & molecular biology, 2019).
